Usually pIC50 stands for the IC50 on a negative log10 scale, so that one unit is a factor of ten. Read a low pIC50 as a large IC50.

The target of this experiment is myeloperoxidase (MPO) (Homo sapiens, UniProt P05164). The format is biochemical.

pIC50: −log10 of the molar value.

Chain of myeloperoxidase (MPO) (P05164 165-273): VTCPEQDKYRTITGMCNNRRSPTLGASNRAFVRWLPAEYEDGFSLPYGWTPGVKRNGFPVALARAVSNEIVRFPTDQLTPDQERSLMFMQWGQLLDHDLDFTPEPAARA
Chain of myeloperoxidase (MPO) (P05164 279-745): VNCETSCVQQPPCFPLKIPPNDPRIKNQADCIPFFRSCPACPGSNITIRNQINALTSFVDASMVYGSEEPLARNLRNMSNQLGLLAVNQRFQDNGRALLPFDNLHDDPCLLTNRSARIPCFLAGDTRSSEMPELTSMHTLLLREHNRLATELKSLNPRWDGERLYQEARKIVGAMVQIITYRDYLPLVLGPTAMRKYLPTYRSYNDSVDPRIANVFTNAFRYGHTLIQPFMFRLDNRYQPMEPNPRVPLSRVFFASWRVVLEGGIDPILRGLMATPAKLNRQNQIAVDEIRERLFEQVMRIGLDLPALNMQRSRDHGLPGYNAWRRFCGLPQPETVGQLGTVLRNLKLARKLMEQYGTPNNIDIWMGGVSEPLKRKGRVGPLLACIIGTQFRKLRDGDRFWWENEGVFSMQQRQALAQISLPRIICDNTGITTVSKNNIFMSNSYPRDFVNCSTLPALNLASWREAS

The compound `COc1cc(CC(CO[C@@H]2O[C@H](CO)[C@@H](O)[C@H](O)[C@H]2O)C(CO[C@@H]2O[C@H](CO)[C@@H](O)[C@H](O)[C@H]2O)Cc2ccc(O)c(OC)c2)ccc1O` (stereo partly shown) [LGM2605] showed a pIC50 of 4.20.
